{"source": "paper PMC3705412", "about": "“PTP1B Inhibitory and Anti-Inflammatory Effects of Secondary Metabolites Isolated from the Marine-Derived Fungus Penicillium sp. JF-55” (Marine Drugs, 2013)", "type_in_all_cases": "cell-based, murine (C57BL/6 mice)", "key": {"NF-κB (p65)": {"tested_on": "NF-κB (p65)", "experiment": "Western blotting of NF-κB (p65) nuclear translocation in LPS-stimulated macrophages", "settings": "pre-treatment 12 h, LPS 1 μg/mL 1 h", "procedure": "(§1) Figure 5 The effects of penstyrylpyrone (1) on the protein expression level of IκB-α phosphorylation, degradation of IκB-α (A), NF-κB translocation (B), and NF-κB DNA binding activity (C) in murine peritoneal macrophages. Murine peritoneal macrophages were pre-treated for 12 h at the indicated concentrations of penstyrylpyrone (1), and stimulated for 1 h with LPS (1 μg/mL). Western blotting analysis of IκB-α and p-IκB-α in the cytoplasm and NF-κB in the nucleus (A, B) were performed. A commercially available NF-κB ELISA (Active Motif) was used to test the nuclear extracts and to determine the degree of NF-κB binding (C). […]\n(§2) Murine peritoneal macrophages were homogenized (1:20, w:v) in PER-Mammalian Protein Extraction buffer (Pierce Biotechnology, Rockford, IL, USA) containing freshly added protease inhibitor cocktail I (EMD Biosciences, San Diego, CA, USA) and 1 mM phenylmethylsulfonyl fluoride (PMSF). […] The protein concentration was determined using the bicinchoninic acid (BCA) protein assay kit.\n(§3) Western blotting analysis was performed by lysing the cells in 20 mM Tris-HCl buffer (pH 7.4) containing a protease inhibitor mixture (0.1 mM PMSF, 5 mg/mL aprotinin, 5 mg/mL pepstatin A, and 1 mg/mL chymostatin). The protein concentration was determined using a Lowry protein assay kit (P5626; Sigma Chemical Co., St. Louis, MO, USA). […]"}, "IκB-α": {"tested_on": "IκB-α", "experiment": "Western blotting of IκB-α phosphorylation and degradation in LPS-stimulated macrophages", "settings": "pre-treatment 12 h, 5 to 40 μM, LPS 1 μg/mL 1 h", "procedure": "as §1, §2, §3"}, "HO-1": {"tested_on": "HO-1", "experiment": "Effect of the HO-1 inhibitor SnPP on the inhibition of pro-inflammatory mediators in LPS-stimulated macrophages", "settings": "40 μM pre-treatment 12 h, SnPP 50 μM, LPS 1 μg/mL 18 h", "procedure": "Figure 8 The effects of SnPP on the inhibition of nitrite production (A), PGE2 production (B), NF-κB DNA-binding activity (C), TNF-α production (D), and IL-1β production (E) by penstyrylpyrone (1) pre-treatment of LPS-stimulated murine peritoneal macrophages. Murine peritoneal macrophages were pre-treated for 12 h with penstyrylpyrone (1) (40μM), in the presence or absence of SnPP (50 μM) and stimulated for 18 h with LPS (1μg/mL). The nitrite (A), PGE2 (B), TNF-α (D), and IL-1β (E) concentrations and nuclear NF-κB DNA-binding activity (C) were investigated as described in Materials and Methods. […]\nThe production of nitrite, a stable end product of NO oxidation, was used as a measure of iNOS activity. The nitrite present in the conditioned medium was determined using a method based on the Griess reaction.\nThe level of PGE2, TNF-α or IL-1β present in each sample was determined using a commercially available kit from R & D Systems. […] A substrate solution was added, and the intensity of the color produced, which was measured at 450 nm (the correction wavelength was set at 540 nm or 570 nm), was proportional to the amount of PGE2, TNF-α or IL-1β present.\nThe DNA-binding activity of NF-κB in the nuclear extracts was measured using the TransAM kit (Active Motif, Carlsbad, CA, USA) according to the manufacturer’s instructions."}, "[1]": {"tested_on": "anti-oxidant response element (ARE)", "experiment": "ARE-luciferase activation in macrophages", "settings": "1 h, 5% FBS", "procedure": "Figure 7 The effects of penstyrylpyrone (1) on the nuclear translocation of Nrf2 (A) and anti-oxidant response element (ARE) activation (B) in murine peritoneal macrophages. Murine peritoneal macrophages were treated with 40 μM of penstyrylpyrone (1) for 15, 30, 60, 90 and 120 min. The nuclei were fractionated from the cytosol using PER-Mammalian Protein Extraction buffer. Nrf2 protein was detected using Western blotting analysis and representative blots of three independent experiments are shown. Quiescent cells transiently transfected with ARE-luciferase or control vector were incubated for 1 h with indicated concentrations of latifolin in the presence of 5% FBS. Cell lysates were assayed for luciferase activity and depicted by fold induction by normalizing the transfection efficiency and dividing the values of each experiment relative to the control. * p < 0.05 compared to the control group."}}, "data": [{"molecule": "COc1cc(/C=C/c2ccccc2)oc(=O)c1C", "note": "[Penstyrylpyrone (1), penstyrylpyrone]", "values": [{"measurement": "Nuclear p65 protein levels (NF-κB translocation)", "setting": "NF-κB (p65)", "value": "gradually inhibited"}, {"measurement": "LPS-induced phosphorylation and degradation of IκB-α", "setting": "IκB-α", "value": "markedly inhibited"}, {"measurement": "Suppressive effects on LPS-stimulated NO, PGE2, TNF-α, IL-1β production and NF-κB DNA-binding activity in presence of SnPP", "setting": "HO-1", "value": "partially reversed by SnPP"}, {"measurement": "ARE activation (luciferase)", "setting": "[1]", "value": "gradually increased in a dose-dependent manner"}]}]}
